Measured values taken from the supplement of paper PMC11208160.

Test: recombinant UMI read abundance after kanamycin selection (control-corrected) (log10(CPM+1)); higher = more efficient recombination; extreme values may be limits of the assay; sequences stand for … in AGTGCAGAGAAAATCGGCCAGTTTTCTCTGCCTGCAGTCCGCATGCCGTGGGACCCCTTGGGTTCTAACCTGTTGCCTAGATTTATGCAGCGGACTGCCTTTCTCCCAAAGTGATAAACCGG…AGGTTGGTTTCACT; site = the 11-nt donor
How it was run: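 Pooled Escherichia coli screen of donor and donor-binding-loop pairs for the IS621 bridge recombinase. Each pair sits with a 12-nt UMI on a plasmid carrying a promoterless kanamycin gene. The library was co-electroporated with a target plasmid encoding a fixed target and T7-inducible recombinase, then plated with IPTG (0.07 mM) plus kanamycin, or unselected, each in two replicates. Recombinant UMIs were PCR-amplified across the donor–target junction and sequenced. Counts became CPM, averaged over replicates, scaled by control-derived factors and reported as log10(CPM+1).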

Row | Sequence | recombinant UMI read abundance (log10)
1 | GTGAGAACATGGACCGGTTTTCCCGGTAATCCGTATTTGGC (site GTGAGAACTGC) | 1.49
2 | GTGAGAACATGGACCGGTTTTCCCGGTAATCCGTATTTGGC (site GTTAGAACTGC) | 0
3 | GTGAGGTCATGGACCGGTTTTCCCGGTAATCCGTATTTGCT (site GTGAGGTCTAG) | 3.11
4 | GTGATTCCATGGACCGGTTTTCCCGGTAATCCGTATTTGCA (site GTGATTCCTTG) | 1.09
5 | GTGATTCCATGGACCGGTTTTCCCGGTAATCCGTATTTGGA (site GTGATTCCTTC) | 0.421
6 | GTGATTCCATGGACCGGTTTTCCCGGTAATCCGTATTTGGT (site GTGATTCCTAC) | 0.318
7 | GTGCCTACATGGACCGGTTTTCCCGGTAATCCGTATTTGGC (site GTGCCTACTGC) | 1.12
8 | GTGCTGACATGGACCGGTTTTCCCGGTAATCCGTATTTGTT (site GTGCTGACTAA) | 0.314
9 | GTGCTTACATGGACCGGTTTTCCCGGTAATCCGTATTTGTA (site GTGCTTACTTA) | 0.318
10 | GTGGAGGCATGGACCGGTTTTCCCGGTAATCCGTATTTGCG (site GTGGAGGCTCA) | 1.56
11 | GTGGAGGCATGGACCGGTTTTCCCGGTAATCCGTATTTGCG (site GTGGAGGCTCC) | 0.392
12 | GTGGAGGCATGGACCGGTTTTCCCGGTAATCCGTATTTGCG (site GTGGAGGCTCG) | 2.28
13 | GTGGAGGCATGGACCGGTTTTCCCGGTAATCCGTATTTGCG (site GTGGAGGCTCT) | 0.716
14 | GTGGAGGCATGGACCGGTTTTCCCGGTAATCCGTATTTGTC (site GTGGAGGCTAA) | 0.657
15 | GTGGAGGCATGGACCGGTTTTCCCGGTAATCCGTATTTGTC (site GTGGAGGCTCA) | 0.549
16 | GTGGAGGCATGGACCGGTTTTCCCGGTAATCCGTATTTGTC (site GTGGAGGCTGA) | 2.67
17 | GTGGAGGCATGGACCGGTTTTCCCGGTAATCCGTATTTGTC (site GTGGAGGCTTA) | 1.64
18 | GTGGAGGCATGGACCGGTTTTCCCGGTAATCCGTATTTGTG (site ATGGAGGCTCA) | 1.53
19 | GTGGAGGCATGGACCGGTTTTCCCGGTAATCCGTATTTGTG (site CTGGAGGCTCA) | 0.921
20 | GTGGAGGCATGGACCGGTTTTCCCGGTAATCCGTATTTGTG (site GAGGAGGCTCA) | 0.602
21 | GTGGAGGCATGGACCGGTTTTCCCGGTAATCCGTATTTGTG (site GCGGAGGCTCA) | 0.6
22 | GTGGAGGCATGGACCGGTTTTCCCGGTAATCCGTATTTGTG (site GGGGAGGCTCA) | 0
23 | GTGGAGGCATGGACCGGTTTTCCCGGTAATCCGTATTTGTG (site GTAGAGGCTCA) | 1.94

Row | Sequence | recombinant UMI read abundance (log10)
24 | GTGGAGGCATGGACCGGTTTTCCCGGTAATCCGTATTTGTG (site GTCGAGGCTCA) | 0.00904
25 | GTGGAGGCATGGACCGGTTTTCCCGGTAATCCGTATTTGTG (site GTGAAGGCTCA) | 1.1
26 | GTGGAGGCATGGACCGGTTTTCCCGGTAATCCGTATTTGTG (site GTGCAGGCTCA) | 0.25
27 | GTGGAGGCATGGACCGGTTTTCCCGGTAATCCGTATTTGTG (site GTGGAAGCTCA) | 2.56
28 | GTGGAGGCATGGACCGGTTTTCCCGGTAATCCGTATTTGTG (site GTGGACGCTCA) | 1.02
29 | GTGGAGGCATGGACCGGTTTTCCCGGTAATCCGTATTTGTG (site GTGGAGACTCA) | 0.959
30 | GTGGAGGCATGGACCGGTTTTCCCGGTAATCCGTATTTGTG (site GTGGAGCCTCA) | 0.0109
31 | GTGGAGGCATGGACCGGTTTTCCCGGTAATCCGTATTTGTG (site GTGGAGGCTAA) | 0.431
32 | GTGGAGGCATGGACCGGTTTTCCCGGTAATCCGTATTTGTG (site GTGGAGGCTCA) | 1.41
33 | GTGGAGGCATGGACCGGTTTTCCCGGTAATCCGTATTTGTG (site GTGGAGGCTCC) | 0.284
34 | GTGGAGGCATGGACCGGTTTTCCCGGTAATCCGTATTTGTG (site GTGGAGGCTCG) | 1.53
35 | GTGGAGGCATGGACCGGTTTTCCCGGTAATCCGTATTTGTG (site GTGGAGGCTCT) | 1.15
36 | GTGGAGGCATGGACCGGTTTTCCCGGTAATCCGTATTTGTG (site GTGGAGGCTGA) | 0.461
37 | GTGGAGGCATGGACCGGTTTTCCCGGTAATCCGTATTTGTG (site GTGGAGGCTTA) | 1.42
38 | GTGGAGGCATGGACCGGTTTTCCCGGTAATCCGTATTTGTG (site GTGGAGTCTCA) | 1.82
39 | GTGGAGGCATGGACCGGTTTTCCCGGTAATCCGTATTTGTG (site GTGGATGCTCA) | 1.27
40 | GTGGAGGCATGGACCGGTTTTCCCGGTAATCCGTATTTGTG (site GTGGCGGCTCA) | 0.00613
41 | GTGGAGGCATGGACCGGTTTTCCCGGTAATCCGTATTTGTG (site GTGGGGGCTCA) | 0.918
42 | GTGGAGGCATGGACCGGTTTTCCCGGTAATCCGTATTTGTG (site GTGGTGGCTCA) | 0
43 | GTGGAGGCATGGACCGGTTTTCCCGGTAATCCGTATTTGTG (site GTGTAGGCTCA) | 1.06
44 | GTGGAGGCATGGACCGGTTTTCCCGGTAATCCGTATTTGTG (site GTTGAGGCTCA) | 0.792
45 | GTGGAGGCATGGACCGGTTTTCCCGGTAATCCGTATTTGTG (site TTGGAGGCTCA) | 0.821
46 | GTGGATGCATGGACCGGTTTTCCCGGTAATCCGTATTTGTG (site GTGGAAGCTCA) | 1.82

Row | Sequence | recombinant UMI read abundance (log10)
47 | GTGGATGCATGGACCGGTTTTCCCGGTAATCCGTATTTGTG (site GTGGACGCTCA) | 0.837
48 | GTGGATGCATGGACCGGTTTTCCCGGTAATCCGTATTTGTG (site GTGGAGGCTCA) | 0.696
49 | GTGGATGCATGGACCGGTTTTCCCGGTAATCCGTATTTGTG (site GTGGATGCTCA) | 1.67
50 | GTGGCACCATGGACCGGTTTTCCCGGTAATCCGTATTTGAG (site GTGGCACCTCT) | 0.0198
51 | GTGGCACCATGGACCGGTTTTCCCGGTAATCCGTATTTGCA (site GAGGCACCTTG) | 0
52 | GTGGCACCATGGACCGGTTTTCCCGGTAATCCGTATTTGCA (site GCGGCACCTTG) | 0
53 | GTGGCACCATGGACCGGTTTTCCCGGTAATCCGTATTTGCA (site GGGGCACCTTG) | 0
54 | GTGGCACCATGGACCGGTTTTCCCGGTAATCCGTATTTGCA (site GTGGCACCTTG) | 0
55 | GTGGCGGCATGGACCGGTTTTCCCGGTAATCCGTATTTGTG (site GTGGAGGCTCA) | 0.154
56 | GTGGCGGCATGGACCGGTTTTCCCGGTAATCCGTATTTGTG (site GTGGCGGCTCA) | 0.696
57 | GTGGCGGCATGGACCGGTTTTCCCGGTAATCCGTATTTGTG (site GTGGGGGCTCA) | 0.0119
58 | GTGGCGGCATGGACCGGTTTTCCCGGTAATCCGTATTTGTG (site GTGGTGGCTCA) | 0.00615
59 | GTGGCTGCATGGACCGGTTTTCCCGGTAATCCGTATTTGAT (site GTGGCTGCTAT) | 2.18
60 | GTGTAGGCATGGACCGGTTTTCCCGGTAATCCGTATTTGGC (site ATGTAGGCTGC) | 1.98
61 | GTGTAGGCATGGACCGGTTTTCCCGGTAATCCGTATTTGGC (site CTGTAGGCTGC) | 1.99
62 | GTGTAGGCATGGACCGGTTTTCCCGGTAATCCGTATTTGGC (site GTGTAGGCTGC) | 2.67
63 | GTGTAGGCATGGACCGGTTTTCCCGGTAATCCGTATTTGGC (site TTGTAGGCTGC) | 2.28
64 | GTGTAGGCATGGACCGGTTTTCCCGGTAATCCGTATTTGTG (site GTGAAGGCTCA) | 0.891
65 | GTGTAGGCATGGACCGGTTTTCCCGGTAATCCGTATTTGTG (site GTGCAGGCTCA) | 1.36
66 | GTGTAGGCATGGACCGGTTTTCCCGGTAATCCGTATTTGTG (site GTGGAGGCTCA) | 0.00345
67 | GTGTAGGCATGGACCGGTTTTCCCGGTAATCCGTATTTGTG (site GTGTAGGCTCA) | 1.75
68 | GTGTTTCCATGGACCGGTTTTCCCGGTAATCCGTATTTGTG (site GTGTTTCCTCA) | 0.368
